{
  "source": "patent US10307392B2",
  "about": "“Compound and method for treatment of diseases and disorders” (priority 2017, dated 2019)",
  "origin": "cited, not measured here",
  "key": {"[1]": {"system": "females with severe somatoform and dysautonomic syndrome following HPV vaccination", "design": "dose or concentration left out as unconfirmed", "details": "up to a maximum dose of CBD per day; 12 females"}, "Parkinson's disease": {"system": "Parkinson's disease", "details": "oral, started with 150 mg/day, 4 weeks"}, "[2]": {"system": "PBQ-induced writhing in mice", "details": "for reducing analgesia and inflammation: mouse, in vivo"}, "[3]": {"system": "subjects with noninsulin-treated type 2 diabetes"}, "[4]": {"system": "rat cortical neuron cultures exposed to toxic levels of the neurotransmitter, glutamate", "details": "for prevention of glutamate toxicity: isolated or synthetic cannabinoid, in vitro neuronal cultures exposed to glutamate; for NMDA, AMPA and kainate receptor mediated neurotoxicity: not affected by cannabinoid receptor antagonist"}, "[5]": {"details": "cyclic voltametry and fenton reaction-based system"}, "spasticity": {"system": "spasticity", "details": "in vivo"}, "[6]": {"system": "patients receiving Marinol"}, "MS patients": {"system": "MS patients", "details": "13 weeks' follow-up"}},
  "note": "Like-named read-outs stand apart in the source and are kept apart here.",
  "data": [
    {"smiles": "C=C(C)[C@@H]1CCC(C)=C[C@H]1c1c(O)cc(CCCCC)cc1O", "note": "[CBD, cannabidiol]", "values": [
      {"measurement": "tolerability", "setting": "[1]", "value": "well tolerated"},
      {"measurement": "adverse effect during the treatment", "setting": "Parkinson's disease", "value": "no adverse effect"},
      {"measurement": "inhibition of PBQ-induced writhing", "setting": "[2]; oral administration, mice", "value": "most effective"},
      {"measurement": "hydroperoxide toxicity in neurons", "setting": "neuronal cultures", "value": "reduce hydroperoxide toxicity"},
      {"measurement": "tolerability", "setting": "[3]; 200 mg CBD per day, 62 subjects in study", "value": "well tolerated"},
      {"measurement": "protective capacity against glutamate toxicity, head to head with other antioxidants", "setting": "[4]", "value": "superior to both alpha-tocopherol and ascorbate"},
      {"measurement": "prevention of glutamate toxicity", "setting": "[4]", "value": "prevented to some extent"},
      {"measurement": "NMDA, AMPA and kainate receptor mediated neurotoxicity", "setting": "[4]", "value": "reduced"},
      {"measurement": "antioxidant activity", "setting": "[5]", "value": "potent antioxidants"}
    ]},
    {"smiles": "CCCCCc1cc(O)c2c(c1)OC(C)(C)c1ccc(C)cc1-2", "note": "[CBN, cannabinol]", "values": [
      {"measurement": "reducing analgesia and inflammation", "setting": "[2]", "value": "least effective"}
    ]},
    {"smiles": "CCCCCCC(C)(C)c1cc(O)c2c(c1)OC(C)(C)C1CCC(=O)CC21", "note": "(stereo not shown) [Cesamet]", "values": [
      {"measurement": "reducing spasticity", "setting": "spasticity", "value": "positive results"}
    ]},
    {"smiles": "CCCCCc1cc(O)c2c(c1)OC(C)(C)[C@@H]1CCC(C)=C[C@@H]21", "note": "[Marinol]", "values": [
      {"measurement": "patients reporting cannabinoid dose-related psychotropic effect", "setting": "[6]; antiemetic clinical trials", "value": 24, "unit": "%"},
      {"measurement": "patients reporting a CNS adverse reaction", "setting": "[6]; during the first 2 weeks", "value": "About 25%"},
      {"measurement": "patients reporting a CNS adverse reaction", "setting": "[6]; each week for the next 6 weeks", "value": "about 4%"},
      {"measurement": "patients reporting cannabinoid dose-related psychotropic effect", "setting": "[6]; lower dose appetite stimulant clinical trials", "value": 8, "unit": "%"},
      {"measurement": "patients reporting adverse experiences involving the CNS", "setting": "[6]; patients with AIDS, placebo-controlled clinical trials", "value": 33, "unit": "%"},
      {"measurement": "reducing spasticity", "setting": "spasticity", "value": "positive results"}
    ]},
    {"smiles": "CCCCCc1cc(O)c2c(c1)OC(C)(C)[C@@H]1CCC(C)=C[C@@H]21", "note": "[THC, delta-9-tetrahydrocannabinol]", "values": [
      {"measurement": "reducing analgesia and inflammation", "setting": "[2]", "value": "least effective"},
      {"measurement": "Mean (SD) change in total Ashworth score (baseline minus follow-up)", "setting": "MS patients; placebo 0.92 (6.56)", "value": "1.86 (7.95)"},
      {"measurement": "Mean (SD) change in Ashworth score, lower-body muscle groups", "setting": "MS patients; placebo 1.04 (4.20)", "value": "1.39 (5.21)"},
      {"measurement": "Mean (SD) change in Ashworth score, upper-body muscle groups", "setting": "MS patients; placebo −0.11 (4.04)", "value": "0.48 (4.70)"},
      {"measurement": "prevention of glutamate toxicity", "setting": "[4]", "value": "prevented to some extent"},
      {"measurement": "NMDA, AMPA and kainate receptor mediated neurotoxicity", "setting": "[4]", "value": "reduced"},
      {"measurement": "antioxidant activity", "setting": "[5]", "value": "potent antioxidants"}
    ]},
    {"smiles": "CCCc1cc(O)c2c(c1)OC(C)(C)[C@@H]1CCC(C)=C[C@@H]21", "note": "[THCV]", "values": [
      {"measurement": "tolerability", "setting": "[3]; 10 mg THCV per day", "value": "well tolerated"}
    ]}
  ]
}
